Active and inactive are the calls of the source. The calls are words filed in the database; no cut-off is given here.
Tests used:
Homo sapiens [1] = species: Homo sapiens; assay: Neutralization of nadroparin calcium in human poor platelet plasma at 10 to 50 ug/ml by aPTT assay relative to control; type: cell-free; settings: dose 10-50 µg/ml
Homo sapiens [2] = species: Homo sapiens; assay: Reversal of anticoagulation of dalteparin sodium in human whole blood assessed as restoration of normal coagulation rate at 5 to 20 ug/ml incubated for 5 mins by thromboelastography; type: tissue-based; settings: dose 5-20 µg/ml
Homo sapiens [3] = species: Homo sapiens; assay: Reversal of anticoagulation of nadroparin calcium in human whole blood assessed as restoration of normal clotting time at 5 to 20 ug/ml incubated for 5 mins by thromboelastography; type: tissue-based; settings: dose 5-20 µg/ml
[4] = Toxicity in ICR mouse assessed as effect on animal activity at 25 mg/kg, iv administered as single dose through tail vein and measured on day 2; type: organism-based; settings: in vivo, 48 h, time 2 day
Mus musculus [5] = assay: In vivo antagonism of unfractionated heparin induced anticoagulation in ICR mouse assessed as bleeding time at 0.4 mg/kg, iv administered via tail vein pretreated with heparin for 5 mins followed by compound addition and measured after 5 mins (reference value: 96.5 +/- 20.6 min); type: functional
Rattus norvegicus [6] = assay: In vivo antagonism of enoxaparin sodium induced anticoagulation in Sprague-Dawley rat assessed as restoration of normal clotting time at 1 mg/kg, iv administered via tail vein pretreated with enoxaparin sodium for 5 mins followed by compound addition and measured after 2.5 mins by thromboelastography; type: functional, organism-based
[7] = Binding affinity to enoxaparin sodium in saline at pH 7.4 assessed as change in entropy by ITC analysis
[8] = Toxicity in ICR mouse assessed as histopathological changes in kidneys at 25 mg/kg, iv administered as single dose through tail vein and measured after 14 days by H and E staining based analysis; type: organism-based, Kidney; settings: in vivo, 336 h, time 14 day
[9] = Binding affinity to dalteparin sodium in saline at pH 7.4 assessed as increase in fluorescence by measuring inflection point by fluorescence titration method
Mus musculus [10] = assay: In vivo antagonism of dalteparin sodium induced anticoagulation in ICR mouse assessed as bleeding time at 0.4 mg/kg, iv administered via tail vein pretreated with heparin for 5 mins followed by compound addition and measured after 5 mins (reference value: 96.5 +/- 20.6 min); type: functional
Bos taurus [11] = species: Bos taurus; assay: Neutralization of nadroparin calcium in bovine plasma at 10 to 60 ug/ml by aPTT assay; type: cell-free; settings: dose 10-60 µg/ml
[12] = Toxicity in iv dosed ICR mouse assessed as maximum tolerated dose administered through tail vein; type: organism-based; settings: in vivo
Erythrocyte [13] = assay: Hemolytic activity in Sprague-Dawley rat red blood cells at 512 ug/ml; type: toxicity, cell-based; settings: dose 512 µg/ml
[14] = Binding affinity to nadroparin calcium in saline at pH 7.4 assessed as change in enthalpy by ITC analysis
[15] = Binding affinity to enoxaparin sodium in saline at pH 7.4 assessed as change in enthalpy by ITC analysis
Rattus norvegicus [16] = assay: In vivo antagonism of enoxaparin sodium induced anticoagulation in Sprague-Dawley rat assessed as clotting rate at 0.4 mg/kg, iv administered via tail vein pretreated with enoxaparin sodium for 5 mins followed by compound addition and measured after 2.5 mins by thromboelastography; type: functional
Blood [17] = assay: Blood compatibility in human whole blood assessed as effect on clotting strength at 0 to 20 ug/ml measured upto 50 mins by thromboelastography; type: toxicity, tissue-based; settings: dose 0-20 µg/ml
[18] = Binding affinity to dalteparin sodium in saline at pH 7.4 assessed as change in enthalpy by ITC analysis
[19] = Binding affinity to dalteparin sodium in saline at pH 7.4 assessed as change in entropy by ITC analysis
Bos taurus [20] = species: Bos taurus; assay: Neutralization of unfractionated heparin in bovine plasma at 10 to 60 ug/ml by aPTT assay; type: cell-free; settings: dose 10-60 µg/ml
[21] = Binding affinity to nadroparin calcium in saline at pH 7.4 assessed as change in entropy by ITC analysis
Homo sapiens [22] = species: Homo sapiens; assay: Reversal of anticoagulation of unfractionated heparin in human whole blood assessed as minimum effective dose incubated for 5 mins by thromboelastography; type: tissue-based
[23] = Toxicity in Sprague-Dawley rat assessed as abnormal index of microalbumin at 25 mg/kg, iv measured after 5 hrs; type: organism-based; settings: in vivo
[24] = Binding affinity to unfractionated heparin in saline at pH 7.4 assessed as binding constant by ITC analysis
Homo sapiens [25] = species: Homo sapiens; assay: Reversal of anticoagulation of enoxaparin sodium in human whole blood assessed as restoration of normal clotting strength at 2 to 20 ug/ml incubated for 5 mins by thromboelastography; type: tissue-based; settings: dose 2-20 µg/ml
Homo sapiens [26] = species: Homo sapiens; assay: Reversal of anticoagulation of unfractionated heparin in human whole blood assessed as restoration of normal coagulation rate at 5 to 20 ug/ml incubated for 5 mins by thromboelastography; type: tissue-based; settings: dose 5-20 µg/ml
Homo sapiens [27] = species: Homo sapiens; assay: Reversal of anticoagulation of […] in human whole blood assessed as restoration of normal clotting strength at 2 to 20 ug/ml incubated for 5 mins by thromboelastography; type: tissue-based; settings: dose 2-20 µg/ml
Homo sapiens [28] = species: Homo sapiens; assay: Reversal of anticoagulation of nadroparin calcium in human whole blood assessed as minimum effective dose incubated for 5 mins by thromboelastography; type: tissue-based
[29] = Cytotoxicity against rat H9c2 cells assessed as cell viability at 300 ug/ml incubated for 24 hrs by CCK-8 assay relative to control; type: toxicity, cell-based; settings: at 300 µg/mL, read-out: Activity
[30] = Binding affinity to unfractionated heparin in saline at pH 7.4 assessed as change in enthalpy by ITC analysis
[31] = Effect on bleeding time in ICR mouse at 0.4 mg/kg, iv treated for 5 mins; type: toxicity, organism-based; settings: in vivo
Rattus norvegicus [32] = assay: In vivo antagonism of enoxaparin sodium induced anticoagulation in Sprague-Dawley rat assessed as clotting time at 0.4 mg/kg, iv administered via tail vein pretreated with enoxaparin sodium for 5 mins followed by compound addition and measured after 2.5 mins by thromboelastography; type: functional
Rattus norvegicus [33] = assay: In vivo antagonism of enoxaparin sodium induced anticoagulation in Sprague-Dawley rat assessed as restoration of normal clotting rate at 1 mg/kg, iv administered via tail vein pretreated with enoxaparin sodium for 5 mins followed by compound addition and measured after 2.5 mins by thromboelastography; type: functional, organism-based
Erythrocyte [34] = assay: Hemolytic activity in human red blood cells at 512 ug/ml; type: toxicity, cell-based; settings: dose 512 µg/ml
Blood [35] = assay: Ex vivo neutralization of unfractionated heparin in Sprague-Dawley rat whole blood assessed as restoration of blood coagulation at 10 to 15 ug/ml incubated for 15 mins; type: functional, tissue-based; settings: dose 10-15 µg/ml
[36] = Acute toxicity in iv dosed ICR mouse assessed as maximum tolerated dose measured after 7 days; type: organism-based; settings: in vivo, time 7 day
Rattus norvegicus [37] = assay: In vivo antagonism of enoxaparin sodium induced anticoagulation in Sprague-Dawley rat assessed as restoration of normal clotting strength at 1 mg/kg, iv administered via tail vein pretreated with enoxaparin sodium for 5 mins followed by compound addition and measured after 2.5 mins by thromboelastography; type: functional, organism-based
[38] = Binding affinity to nadroparin calcium in saline at pH 7.4 assessed as increase in fluorescence by measuring inflection point by fluorescence titration method
[39] = Binding affinity to enoxaparin sodium in saline at pH 7.4 assessed as change in gibbs free energy by ITC analysis
Bos taurus [40] = species: Bos taurus; assay: Neutralization of enoxaparin sodium in bovine plasma at 10 to 60 ug/ml by aPTT assay; type: cell-free; settings: dose 10-60 µg/ml

SMILES: NCCOc1ccc(-c2cc[n+](Cc3ccc(C(c4ccc(C[n+]5ccc(-c6ccc(OCCN)c(OCCN)c6)cc5)cc4)(c4ccc(C[n+]5ccc(-c6ccc(OCCN)c(OCCN)c6)cc5)cc4)c4ccc(C[n+]5ccc(-c6ccc(OCCN)c(OCCN)c6)cc5)cc4)cc3)cc2)cc1OCCN.[Cl-].[Cl-].[Cl-].[Cl-]
- Activity (Homo sapiens [1]): 99%
- Activity (Homo sapiens [2]): Active
- Activity (Homo sapiens [3]): Active
- Activity [4]: Toxic
- Time (Mus musculus [5]): 22.7 min
- Activity (Rattus norvegicus [6]): Active
- -TdeltaS [7]: -2.05 kcal/mol
- Activity [8]: Non-Toxic
- IP [9]: 2.6
- Time (Mus musculus [10]): 20.9 min
- Activity (Bos taurus [11]): Active
- MTD [12]: 25 mg/kg
- Activity (Erythrocyte [13]): Non-Toxic
- deltaH [14]: -6.53 kcal/mol
- deltaH [15]: -7.86 kcal/mol
- Activity (Rattus norvegicus [16]): 1.95 min
- Activity (Blood [17]): Toxic
- deltaH [18]: -5.07 kcal/mol
- -TdeltaS [19]: -5.41 kcal/mol
- Activity (Bos taurus [20]): Active
- -TdeltaS [21]: -3.4 kcal/mol
- MED (Homo sapiens [22]): 4 µg/mL
- Activity [23]: Toxic
- Ka [24]: 2.92e+07 M⁻¹
- Activity (Homo sapiens [25]): Active
- Activity (Homo sapiens [26]): Active
- Activity (Homo sapiens [27]): Active
- MED (Homo sapiens [28]): 4 µg/mL
- viability at 24 h, 300 ug/ml [29]: > 80%
- deltaH [30]: -5.86 kcal/mol
- Activity [31]: Non-Toxic
- Time (Rattus norvegicus [32]): 3.63 min
- Activity (Rattus norvegicus [33]): Active
- Activity (Erythrocyte [34]): Non-Toxic
- Activity (Blood [35]): Active
- MTD at 168 h [36]: 25 mg/kg
- Activity (Rattus norvegicus [37]): Active
- IP [38]: 3
- deltaG [39]: -9.91 kcal/mol
- Activity (Bos taurus [40]): Active

— ChEMBL document CHEMBL5518209, “Caltrop-like Small-Molecule Antidotes That Neutralize Unfractionated Heparin and Low-Molecular-Weight Heparin In Vivo” (J Med Chem, 2024)
